Drawing on the supplement of paper PMC10883282, this text covers relative viability for 4 compounds.

± gives the standard deviation of the averaged measurements.

The assay concerns HS729. Kind of assay: relative viability vs DMSO control (72 h) (fraction); higher = more viable cells. Put shortly:
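Relative viability is percent growth read by ATPLite and averaged over up to triplicate wells. Sarcoma cells were seeded in 384-well plates to reach 80–90% confluence and given 2.5 µl of serially diluted compound after 24 h, from source plates of 10 mM to 0.0002 mM. Incubation lasted 72 h at 37 °C, 5% CO2, with 0.1% DMSO vehicle and a 5 µM positive control, and the data were rescaled so 1 equals full and 0 equals none.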

Take `COc1c(OCCCN2CCOCC2)ccc2c1N=C(NC(=O)c1cnc(N)nc1)N1CCN=C21` [Copanlisib]: the relative viability amounted to 1.05 ± 0.04 (0.00017 µM); 0.906 ± 0.03 (0.00051 µM); 0.919 ± 0.027 (0.00152 µM); 0.701 ± 0.12 (0.00457 µM); 0.688 ± 0.028 (0.01372 µM); 0.6016 ± 0.0023 (0.04115 µM). The relative viability is, setting by setting: (0.1235 µM) 0.483 ± 0.028; (0.3704 µM) 0.439 ± 0.045; (1.111 µM) 0.324 ± 0.035; (3.333 µM) 0.306 ± 0.022; (10 µM) 0.255 ± 0.015.

With `CN1CCN(c2ccc3nc(-c4c(N)c5c(F)cccc5[nH]c4=O)[nH]c3c2)CC1` [Dovitinib], the relative viability came to 1.09 ± 0.058 (0.00017 µM); 1.03 ± 0.036 (0.00051 µM); 1.09 ± 0.027 (0.00152 µM); 1.04 ± 0.061 (0.00457 µM); 1.05 ± 0.079 (0.01372 µM); 1 ± 0.026 (0.04115 µM). In addition, the relative viability stood at 0.968 ± 0.083 (0.1235 µM); 0.832 ± 0.059 (0.3704 µM); 0.62 ± 0.025 (1.111 µM); 0.41 ± 0.066 (3.333 µM); 0.264 ± 0.034 (10 µM).

With `COCc1c(-c2cc3cc(C)cc(OC)c3s2)c2c(N)ncnn2c1CN1CCNC(=O)C1` [Rogaratinib], the relative viability was found to be 1.06 ± 0.024 (0.00017 µM); 0.957 ± 0.068 (0.00051 µM); 0.967 ± 0.036 (0.00152 µM); 0.91 ± 0.052 (0.00457 µM); 0.92 ± 0.11 (0.01372 µM); 0.882 ± 0.034 (0.04115 µM). For the same compound, the relative viability is, setting by setting: (0.1235 µM) 0.755 ± 0.041; (0.3704 µM) 0.645 ± 0.037; (1.111 µM) 0.582 ± 0.039; (3.333 µM) 0.485 ± 0.031; (10 µM) 0.348 ± 0.024.

Regarding `CN1CCC(COc2cnc(-c3cccc(Cn4nc(-c5cccc(C#N)c5)ccc4=O)c3)nc2)CC1` [Tepotinib], the relative viability (0.00017 µM) was 1.04 ± 0.054; the relative viability (0.00051 µM) was 1 ± 0.048; the relative viability (0.00152 µM) is 0.988 ± 0.034; the relative viability (0.00457 µM) is 0.983 ± 0.041; the relative viability (0.01372 µM) was found to be 0.941 ± 0.057; the relative viability (0.04115 µM) was 0.928 ± 0.055. The relative viability is, setting by setting: (0.1235 µM) 0.987 ± 0.027; (0.3704 µM) 0.894 ± 0.02; (1.111 µM) 0.926 ± 0.038; (3.333 µM) 0.831 ± 0.029; (10 µM) 0.829 ± 0.035.
